Measurements from PMC12693419, “Design, Synthesis, Biological Evaluation, and In Silico Studies of Novel Multitarget Cinnamic Acid Hybrids” (Molecules, 2025).

Key:
[1] = biological target: T1, bovine serum albumin (Bos taurus, UniProt P02769); test: In vitro inhibition of albumin denaturation; conditions: heat denaturation, 60 °C 10 min
T1 construct: bovine serum albumin solution (fraction V); purchased Merck and Sigma-Aldrich; host or cells: bovine serum (fraction V)
Experimental: The ability of a compound to inhibit the thermal denaturation of albumin is considered an indicator of anti-inflammatory activity. Heat exposure simulates conditions of cellular stress or inflammation, during which protein and tissue damage occur. Certain substances can protect proteins from denaturation upon heating by stabilizing their structure and preventing aggregation and precipitation.
Inhibition of albumin denaturation was measured following the reported method. In a test tube, 1 mL of bovine serum albumin solution (fraction V, 1% w/v in phosphate buffer, pH 7.4) and 100 μL of the test compound solution were added sequentially. The mixture was incubated at 37 °C for 15 min, followed by heating at 60 °C for 10 min. After cooling to room temperature, the absorbance was measured at 660 nm. DMSO was used as the blank, and the results were compared to acetylsalicylic acid, which served as the reference compound (Table 6).

[2] = In vitro inhibition of linoleic acid lipid peroxidation (AAPH); conditions: 100 μM; anti-lipid peroxidation
Source text: In the present study, the aim was to evaluate the anti-lipid peroxidation activities of the synthesized compounds 5a–i, 6a–i, 9a–i, and 11 and compare their efficacy to that of Trolox, a well-known antioxidant. Using the water-soluble compound 2,2′-azobis(2-amidinopropane) hydrochloride (AAPH), peroxyl radicals are generated through spontaneous thermal decomposition in vitro. This experimental setup imitated the lipid peroxidation processes occurring in cells due to radical activity allowing the investigation of the effectiveness of the tested compounds under conditions resembling cellular oxidative stress.
An in vitro assay was performed following previously established protocols. The compound 2,2′-Azobis(2-methylpropionamidine) dihydrochloride (AAPH) was used as a controlled source of thermally generated alkylperoxy free radicals. The formation of conjugated diene hydroperoxides through the oxidation of sodium linoleate in an aqueous dispersion at 37 °C was measured by monitoring absorbance at 234 nm. The results were compared with the reference compound, Trolox (93%) (Table 6).

[3] = biological target: T2, soybean lipoxygenase isoenzyme-1 (SLOX-1) (Glycine max, UniProt P08170); test: In vitro inhibition of soybean lipoxygenase; assay type: biochemical; conditions: for LOX Inh. IC50: pH 9.0; for IC50: pH 9.0, read-out: LOX Inh. IC50
T2 construct: purchased Merck and Sigma-Aldrich
T2 sequence (P08170 1-839): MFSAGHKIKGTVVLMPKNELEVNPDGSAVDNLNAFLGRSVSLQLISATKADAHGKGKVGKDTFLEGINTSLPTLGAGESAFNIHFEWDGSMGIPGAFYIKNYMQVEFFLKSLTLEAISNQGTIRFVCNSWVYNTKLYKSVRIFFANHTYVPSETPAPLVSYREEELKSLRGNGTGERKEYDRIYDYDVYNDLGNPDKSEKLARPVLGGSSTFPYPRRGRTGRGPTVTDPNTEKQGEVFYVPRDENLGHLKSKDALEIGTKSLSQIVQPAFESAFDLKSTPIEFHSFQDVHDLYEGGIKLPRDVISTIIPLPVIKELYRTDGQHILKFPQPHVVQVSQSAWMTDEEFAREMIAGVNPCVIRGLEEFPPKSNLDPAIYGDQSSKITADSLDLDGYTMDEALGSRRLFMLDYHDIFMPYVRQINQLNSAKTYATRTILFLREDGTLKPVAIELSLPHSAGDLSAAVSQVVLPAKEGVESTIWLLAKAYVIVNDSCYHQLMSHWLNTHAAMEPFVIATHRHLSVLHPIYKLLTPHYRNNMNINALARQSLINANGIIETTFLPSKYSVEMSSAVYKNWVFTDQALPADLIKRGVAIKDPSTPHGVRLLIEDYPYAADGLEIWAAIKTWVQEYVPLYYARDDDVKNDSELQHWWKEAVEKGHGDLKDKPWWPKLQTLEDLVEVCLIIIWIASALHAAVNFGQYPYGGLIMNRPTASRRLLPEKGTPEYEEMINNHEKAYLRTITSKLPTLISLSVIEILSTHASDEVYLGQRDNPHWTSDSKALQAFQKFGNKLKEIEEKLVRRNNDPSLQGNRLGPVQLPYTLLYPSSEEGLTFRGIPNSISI
Experimental: In vitro anti-LOX activities were evaluated using soybean lipoxygenase isoenzyme-1 (SLOX-1), a commonly used model for mammalian LOXs.
An in vitro study was conducted following a previously reported method. The tested compounds were dissolved in DMSO (100 µM) and incubated at room temperature with 0.1 mL of sodium linoleate as the substrate and 0.2 mL of soybean lipoxygenase solution in Tris-HCl buffer (pH 9.0).

[4] = biological target: T3, ovine COX-2 (Ovis aries, UniProt P79208); test: In vitro inhibition of ovine cyclooxygenase-2
T3 sequence (P79208 17-603): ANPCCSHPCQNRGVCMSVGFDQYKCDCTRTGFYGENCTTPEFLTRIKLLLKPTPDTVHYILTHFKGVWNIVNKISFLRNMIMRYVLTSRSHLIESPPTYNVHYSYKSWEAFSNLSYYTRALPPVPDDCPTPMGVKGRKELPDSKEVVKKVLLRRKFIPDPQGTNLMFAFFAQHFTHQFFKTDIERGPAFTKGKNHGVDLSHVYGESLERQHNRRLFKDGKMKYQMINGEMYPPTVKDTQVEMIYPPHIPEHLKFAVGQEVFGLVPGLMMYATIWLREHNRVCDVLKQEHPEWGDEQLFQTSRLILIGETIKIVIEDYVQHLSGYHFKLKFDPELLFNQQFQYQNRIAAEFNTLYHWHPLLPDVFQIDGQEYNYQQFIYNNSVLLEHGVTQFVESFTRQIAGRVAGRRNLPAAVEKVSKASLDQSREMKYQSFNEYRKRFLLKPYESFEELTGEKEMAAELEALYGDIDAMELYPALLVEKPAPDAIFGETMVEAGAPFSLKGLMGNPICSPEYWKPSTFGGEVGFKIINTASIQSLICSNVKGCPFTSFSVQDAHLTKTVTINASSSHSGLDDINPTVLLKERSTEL
Experimental: In order to prevent this in the in vitro experiment used for testing COX inhibition activity of the new molecules, a co-substrate like N,N,N′,N′-tetramethyl-p-phenylenediamine (TMPD) is included, as it undergoes co-oxidation by PGG2. The oxidized TMPD has a maximum absorbance at 590 nm. […] To ensure maximum enzyme activity, heme is added to the reaction mixture during the in vitro assay for ovine COX-2 inhibition and COX-1 inhibition [63].
The in vitro COX-2 inhibitory activity was assessed using arachidonic acid (AA) as a substrate and N,N,N′,N′-tetramethyl-p-phenylenediamine (TMPD) as a co-substrate in a Tris-HCl buffer (pH 8.5), following the reported method [89]. To the test tube, 10 µL of the compound dissolved in DMSO was added to a mixture containing 730 µL of Tris-HCl buffer (pH 8.5), 50 µL of heme, 10 µL of COX-2 enzyme, and 100 µL of TMPD. The absorbance was measured at 590 nm. […] A blank determination was conducted as a negative control.

[5] = In vitro determination of NO release with Griess reagent; conditions: 100 μM, L-cysteine, pH 7.4, 37 °C, 60 min
Source text: This assay evaluates the ability of nitrate esters to release nitric oxide (NO). First, sodium nitroprusside (SNP) reacts with the thiol compound, cysteine, which serves as a reducing agent (Scheme 5). The thiol donates electrons, facilitating the breakdown of the nitroprusside complex. Afterwards, the reaction leads to the formation of intermediate complexes, such as nitrosothiol species and the decomposition of these intermediates results in the release of nitric oxide (NO). According to the literature, measurements are conducted both in the presence and absence of the thiol agent, cysteine. No significant difference was observed between the two experimental conditions, and the results were reproducible. Sodium nitroprusside (SNP) was used as the reference compound [65].
The compounds (from a 10 mM stock solution in DMSO, final concentration 100 μM) are added (20 μL) to each test tube. Then, 2 mL of phosphate buffer solution (pH 7.4) is added. L-cysteine, used as the thiol agent, is added to the mixture at a final concentration of 0.5 mM. The solution is incubated at 37 °C for 60 min, after which 1 mL is removed and mixed with 250 μL of Griess reagent (4 g sulfanilamide, 0.2 g N-(1-naphthyl)-ethylenediamine dihydrochloride, and 10 mL of H3PO4 solution, final volume adjusted to 100 mL). The mixture is allowed to stand for 10 min at room temperature, and the absorbance of the produced compound is measured at 540 nm. Sodium nitroprusside (SNP) is used as the reference compound. The results are presented as the release of NO2^− (% NO2^− (mol/mol)) induced by the compounds in the presence of L-cysteine (Table 6).

T1 sequence (P02769 25-607): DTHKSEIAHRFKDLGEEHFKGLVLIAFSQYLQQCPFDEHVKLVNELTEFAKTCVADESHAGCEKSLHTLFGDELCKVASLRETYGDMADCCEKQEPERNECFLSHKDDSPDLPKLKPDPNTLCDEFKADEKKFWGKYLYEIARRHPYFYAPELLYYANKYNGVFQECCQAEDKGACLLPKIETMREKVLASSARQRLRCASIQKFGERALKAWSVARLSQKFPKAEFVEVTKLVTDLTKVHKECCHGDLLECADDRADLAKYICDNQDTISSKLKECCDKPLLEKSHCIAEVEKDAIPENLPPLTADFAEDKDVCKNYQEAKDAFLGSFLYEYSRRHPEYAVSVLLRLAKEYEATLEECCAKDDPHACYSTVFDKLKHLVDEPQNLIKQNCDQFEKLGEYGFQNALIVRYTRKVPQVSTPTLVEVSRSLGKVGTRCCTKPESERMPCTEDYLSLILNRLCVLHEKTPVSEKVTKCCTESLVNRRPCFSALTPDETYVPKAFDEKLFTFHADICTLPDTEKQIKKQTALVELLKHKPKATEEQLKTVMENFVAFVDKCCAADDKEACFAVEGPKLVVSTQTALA

Structure (SMILES)	Albumin (inhibition of albumin denaturation) [1]	AAPH Inh. at 100 μΜ [2]	LOX Inh. IC50 [3]	IC50 [3]	IC50 [4]	%NO2^− Release mol/mol at 100 μΜ [5]	COX-2 Inh. IC50 [4]
CC(=O)Oc1ccccc1C(=O)O [Acetylsalicylic acid, acetylsalicylic acid, reference compound]	31%						
O=C(O)/C=C/c1ccccc1 [Cinnamic acid]		78%					
CC(=O)c1ccc(NC(=O)COC(=O)C=Cc2ccccc2)cc1 [Compound 5a, 2-((4-Acetylphenyl)amino)-2-oxoethyl Cinnamate]		31.9%	no				
CC(=O)c1ccc(NC(=O)COC(=O)/C=C/c2cccc3ccccc23)cc1 [Compound 5b, 2-((4-Acetylphenyl)amino)-2-oxoethyl (E)-3-(naphthalen-1-yl)acrylate]		inactive and no		57.5 µM			
CC(=O)c1ccc(NC(=O)COC(=O)/C=C/c2cccs2)cc1 [Compound 5c, 2-((4-Acetylphenyl)amino)-2-oxoethyl (E)-3-(thiophen-2-yl)acrylate]		29%	no				
CC(=O)c1ccc(NC(=O)COC(=O)/C=C/c2ccco2)cc1 [Compound 5d, 2-((4-Acetylphenyl)amino)-2-oxoethyl (E)-3-(furan-2-yl)acrylate]		no	no				
CC(=O)c1ccc(NC(=O)COC(=O)/C=C/c2cc3ccccc3s2)cc1 [Compound 5e, 2-((4-Acetylphenyl)amino)-2-oxoethyl (E)-3-(benzo[b]thiophen-2-yl)acrylate]		no	no				
CC(=O)c1ccc(NC(=O)COC(=O)/C=C/c2cc3ccccc3o2)cc1 [Compound 5f, 2-((4-Acetylphenyl)amino)-2-oxoethyl (E)-3-(benzofuran-2-yl)acrylate]		39%		80 µM			
CC(=O)c1ccc(NC(=O)COC(=O)/C(=C/c2ccccc2)c2ccccc2)cc1 [Compound 5g, 2-((4-Acetylphenyl)amino)-2-oxoethyl (E)-2,3-diphenylacrylate]		94.7%	no				
CC(=O)c1ccc(NC(=O)COC(=O)/C(=C/c2cccc3ccccc23)c2ccccc2)cc1 [Compound 5h, 2-((4-Acetylphenyl)amino)-2-oxoethyl (E)-3-(naphthalen-1-yl)-2-phenylacrylate]		75.8%		33 µM			
CC(=O)c1ccc(NC(=O)COC(=O)/C(=C/c2cccs2)c2ccccc2)cc1 [Compound 5i, 2-((4-Acetylphenyl)amino)-2-oxoethyl (E)-2-phenyl-3-(thiophen-2-yl)acrylate]		77%	no				
C/C(=N\O)c1ccc(NC(=O)COC(=O)C=Cc2ccccc2)cc1 [Compound 6a, 2-((4-((E)-1-(Hydroxyimino)ethyl)phenyl)amino)-2-oxoethyl cinnamate]	no	50.2%		50 µM	100 µM	no activity and no	
C/C(=N\O)c1ccc(NC(=O)COC(=O)/C=C/c2cccc3ccccc23)cc1 [Compound 6b, 2-((4-((E)-1-(Hydroxyimino)ethyl)phenyl)amino)-2-oxoethyl (E)-3-(naphthalen-1-yl)acrylate]	no	94%		60 µM		1.1%	no
C/C(=N\O)c1ccc(NC(=O)COC(=O)/C=C/c2ccco2)cc1 [Compound 6d, 2-((4-((E)-1-(Hydroxyimino)ethyl)phenyl)amino)-2-oxoethyl (E)-3-(furan-2-yl)acrylate]	10%	54%	no			0.2%	no
C/C(=N\O)c1ccc(NC(=O)COC(=O)/C=C/c2cc3ccccc3s2)cc1 [Compound 6e, 2-((4-((E)-1-(Hydroxyimino)ethyl)phenyl)amino)-2-oxoethyl (E)-3-(benzo[b]thiophen-2-yl)acrylate]	63%	no	no			1.1%	no
C/C(=N\O)c1ccc(NC(=O)COC(=O)/C(=C/c2ccccc2)c2ccccc2)cc1 [Compound 6g, 2-((4-((E)-1-(Hydroxyimino)ethyl)phenyl)amino)-2-oxoethyl (E)-2,3-diphenylacrylate]	no	89%		44 µM		no activity and no	
C/C(=N\O)c1ccc(NC(=O)COC(=O)/C(=C/c2cccc3ccccc23)c2ccccc2)cc1 [Compound 6h, 2-((4-((E)-1-(Hydroxyimino)ethyl)phenyl)amino)-2-oxoethyl (E)-3-(naphthalen-1-yl)-2-phenylacrylate]	no	97.7%		62.5 µM		no activity and no	
Cc1c(C)c2c(c(C)c1O)CCC(C)(C(=O)O)O2 (stereo not shown) [Trolox, reference compound]		93%					
